Read-outs that look alike come from different tables or passages of the source.
Key:
Type in all cases: cell-based
A2780 ovarian cells = assay: A2780 Ovarian Cell Proliferation Assay in Lipid Reduced Medium, with and without Palmitate (MTT); details: Homo sapiens, 10% lipid-reduced serum, 96 h
Method: The biological assays described below correspond to comparative assays for ovarian cell proliferation.
2500 cells were seeded in a 96-well clear well plate in 200 μL RPM11640 with 10% Fetal Calf Serum (Hyclone), and incubated at 37° C., 5% CO2, Blanks were wells without cells. The next day the culture medium was aspirated and replaced by 160 μL culture medium with 10% Lipid-Reduced Serum (LRS, Hyclone). […] After 96 h incubation, an MTT assay was performed.
2500 cells were seeded in a 96-well clear well plate in 200 μL RPM11640 with 10% Fetal Calf Serum (Hyclone), and incubated at 37° C., 5% CO2. Blanks were wells without cells. The next day the culture medium was aspirated and replaced by 160 μL culture medium with 10% Lipid-Reduced Serum (LRS, Hyclone). 20 μL test compound (at concentrations of 30 μM, 10 μM, 3 μM, 1 μM, 0.30 μM, 0.10 μM, 0.03 μM and 0.01 μM)/DMSO dilution followed by 20 μL ethanol-BSA solution were added to a final concentrations of 0.2% DMSO, 0.2% fatty-acid-free BSA, 0.25% ethanol. After 96 h incubation an MTT assay was performed.
Raw data generated by the instrument were normalized to % Controlmin values, which were calculated as: % Controlmin=100*(x−mLC)/(mHC−mLC)
where mLC and mHC were the means of the low control wells and high control wells on the plate, after manual exclusion of outliers. A plot of Controlmin versus test compound concentration was fitted to a 4-parameter logistic curve using a non-linear least squares regression method.

[1] = tested on: LNCaP_Vancouver prostate cells; assay: In Vitro LNCaP Vancouver Prostate Cell Proliferation Assay in Lipid Reduced Medium; details: 10% lipid reduced serum, 96 h, ATP-glow luminescence; for IC50: Prostate cell, read-out: pIC50 LNCaP_Vancouver prostate cell (converted)
Method: LNCaP_Vancouver prostate cells were obtained from the Vancouver Prostate Cancer Centre.
(§1) The next day 10 μl of test compound/DMSO diluted in medium was added (3E-5M, 1E-5M, 3E-6M,1E-6M, 3E-7M, 1E-7M, 3E-8M, 1E-8M final concentration). Compounds were tested in duplicate. After 96 h incubation at 37° C., 5% CO2 25 μl ATP-glow mix was added. The plate was incubated for 30 min at 37° C. and luminescence was measured with the Envision.
(§2) Analysis: Determination of pIC50 Values
(§3) pIC50 values were calculated as follows. Raw data generated by the instruments were normalized to % Controlmin values, which were calculated as: % Controlmin=100*(x−mLC)/(mHC−mLC),
(§4) where mLC and mHC are the means of the low control wells and high control wells on the plate, after manual exclusion of outliers. The relation between the % Controlmin values and concentration was fitted to a 4-parameter logistic curve using a non-linear least squares regression method to determine the pIC50 value. Outlying data points were excluded manually to get a correct fit. The pIC50 corresponds to −log 10(IC50), if the IC50 is expressed in molar units (http://www.ncbi.nlm.nih.qovibooks/NBK91994). The IC50 parameter was always determined by non-linear regression, but one or more of the other parameters may have been held fixed on a relevant input value, such as 0 for the bottom values.

[2] = tested on: PC-3M-Luc-C6 prostate cells; assay: In Vitro PC-3M-Luc-C6 Prostate Cell Proliferation Assay in Lipid Reduced Medium; details: 10% lipid reduced serum, 96 h, ATP-glow luminescence; for IC50: Prostate cell, read-out: pIC50 PC-3M-Luc-C6 prostate cell (converted)
Method: PC-3M-Luc-C6 prostate cells were obtained from Xenogen Corporation. Cells were maintained in MEM supplemented with 10% Fetal Calf Serum (FCS, Hyclone), 2 mM glutamine, 1 mM sodium pyruvate, 1% BME vitamins (available from for example, Sigma Aldrich), 0.1 mM non Essential Amino Acid and 50 μg/ml Gentamicin. The cells were passaged twice a week.
as §1, with “μl” for “μl of”
as §2, §3, §4

[3] = 25 μM palmitate added (control), read-out: pIC50 With Palmitate (converted)
[4] = no palmitate, read-out: pIC50 Without Palmitate (converted)

Row | IC50 (A2780 ovarian cells; [3]) | IC50 (A2780 ovarian cells; [4]) | IC50 [1] | pIC50 LNCaP_Vancouver prostate cell [1] | pIC50 PC-3M-Luc-C6 prostate cell [2] | IC50 [2] | SMILES
1 | 9.55 µM | 0.0525 µM | 0.407 µM |  |  |  | CC1(C)N=C(c2ccc(-c3ccc(-c4ccncc4)cc3)cc2F)N(C[C@@H]2CCN(C(=O)C3CC3)C2)C1=O [Compound 46, (R)-1-((1-(cyclopropanecarbonyl)pyrrolidin-3-yl)methyl)-2-(3-fluoro-4′-(pyridin-4-yl)-[1,1′-biphenyl]-4-yl)-4,4-dimethyl-1H-imidazol-5(4H)-one]
2 | > 10 µM | 0.245 µM | 2.04 µM |  |  |  | Cn1cc(-c2ccc(-c3ccc(C4=NC(C)(C)C(=O)N4CC4CN(C(=O)C5CC5)C4)c(F)c3)cc2)cn1 [Compound 33, 1-((1-(cyclopropanecarbonyl)azetidin-3-yl)methyl)-2-(3-fluoro-4′-(1-methyl-1H-pyrazol-4-yl)-[1,1′-biphenyl]-4-yl)-4,4-dimethyl-1H-imidazol-5(4H)-one]
3 |  |  |  | 5.63 | 6.06 |  | CC1(C)N=C(c2ccc(-c3ccc4cncnc4c3)cc2F)N(CC2CN(C(=O)C3CC3)C2)C1=O [Compound 43, 1-((1-(cyclopropanecarbonyl)azetidin-3-yl)methyl)-2-(2-fluoro-4-(quinazolin-7-yl)phenyl)-4,4-dimethyl-1H-imidazol-5(4H)-one]
4 |  |  | 0.724 µM |  |  | 0.132 µM | Cn1ncc2cc(-c3ccc(C4=NC(C)(C)C(=O)N4C[C@@H]4CCN(C(=O)C5CC5)C4)c(F)c3)ccc21 [Compound 53, (R)-1-((1-(cyclopropanecarbonyl)pyrrolidin-3-yl)methyl)-2-(2-fluoro-4-(1-methyl-1H-indazol-5-yl)phenyl)-4,4-dimethyl-1H-imidazol-5(4H)-one]
5 | > 10 µM | 3.39 µM |  |  |  | 2.09 µM | CC1(C)N=C(c2ccc(-c3nc4ccccc4s3)cc2)N(C[C@@H]2CCN(C(=O)C3CC3)C2)C1=O [Compound 13, (R)-2-(4-(benzo[d]thiazol-2-yl)phenyl)-1-((1-(cyclopropanecarbonyl)pyrrolidin-3-yl)methyl)-4,4-dimethyl-1H-imidazol-5(4H)-one]
6 | > 10 µM | 0.123 µM |  |  |  | 0.0708 µM | CC1(C)N=C(c2ccc(-c3ccc4cc(F)ccc4c3)cc2F)N(CC2CN(C(=O)C3(O)CC3)C2)C1=O [Compound 79, 2-(2-fluoro-4-(6-fluoronaphthalen-2-yl)phenyl)-1-((1-(1-hydroxycyclopropanecarbonyl)azetidin-3-yl)methyl)-4,4-dimethyl-1H-imidazol-5(4H)-one]
7 |  |  | 0.407 µM |  |  | 0.129 µM | CC1(C)N=C(c2ccc(-c3ccc4cc(F)ccc4c3)cc2F)N(CC2CN(C(=O)C3CC3)C2)C1=O [Compound 54, 1-((1-(cyclopropanecarbonyl)azetidin-3-yl)methyl)-2-(2-fluoro-4-(6-fluoronaphthalen-2-yl)phenyl)-4,4-dimethyl-1H-imidazol-5(4H)-one]
8 |  |  | 5.01 µM |  |  |  | CC1(C)N=C(c2ccc(-c3nc4ccccc4[nH]3)cc2F)N(C[C@@H]2CCN(C(=O)C3CC3)C2)C1=O [Compound 61, (R)-2-(4-(1H-benzo[d]imidazol-2-yl)-2-fluorophenyl)-1-((1-(cyclopropanecarbonyl)pyrrolidin-3-yl)methyl)-4,4-dimethyl-1H-imidazol-5(4H)-one]
9 |  |  | 0.12 µM |  |  | 0.0437 µM | CC1(C)N=C(c2ccc(-c3ccc4cccc(F)c4c3)cc2F)N(CC2CN(C(=O)C3CC3)C2)C1=O [Compound 55, 1-((1-(cyclopropanecarbonyl)azetidin-3-yl)methyl)-2-(2-fluoro-4-(8-fluoronaphthalen-2-yl)phenyl)-4,4-dimethyl-1H-imidazol-5(4H)-one]
10 | > 10 µM | 0.537 µM | 3.98 µM |  |  |  | CC1(C)N=C(c2ccc(-c3cnc4ccccc4c3)cc2F)N(C[C@@H]2CCN(C(=O)C3CC3)C2)C1=O [Compound 48, (R)-1-((1-(cyclopropanecarbonyl)pyrrolidin-3-yl)methyl)-2-(2-fluoro-4-(quinolin-3-yl)phenyl)-4,4-dimethyl-1H-imidazol-5(4H)-one]
11 | ~10 µM | ~0.933 µM | 3.55 µM |  |  |  | CC1(C)N=C(c2ccc(-c3cccc4ncccc34)cc2F)N(C[C@@H]2CCN(C(=O)C3CC3)C2)C1=O [Compound 47, (R)-1-((1-(cyclopropanecarbonyl)pyrrolidin-3-yl)methyl)-2-(2-fluoro-4-(quinolin-5-yl)phenyl)-4,4-dimethyl-1H-imidazol-5(4H)-one]
12 | > 10 µM | 0.0457 µM |  |  |  | 0.017 µM | Cc1cc(-c2ccc3c(cnn3C)c2)ccc1C1=NC(C)(C)C(=O)N1C[C@@H]1CCN(C(=O)C2(C)CC2)C1 [Compound 80, (R)-4,4-dimethyl-2-(2-methyl-4-(1-methyl-1H-indazol-5-yl)phenyl)-1-((1-(1-methylcyclopropanecarbonyl)pyrrolidin-3-yl)methyl)-1H-imidazol-5(4H)-one]
13 |  |  | 0.339 µM |  |  | 0.0631 µM | CC1(C)N=C(c2ccc(-c3ccc4cnccc4c3)cc2F)N(CC2CN(C(=O)C3CC3)C2)C1=O [Compound 56, 1-((1-(cyclopropanecarbonyl)azetidin-3-yl)methyl)-2-(2-fluoro-4-(isoquinolin-6-yl)phenyl)-4,4-dimethyl-1H-imidazol-5(4H)-one]
14 | > 10 µM | 0.229 µM |  |  |  | 0.661 µM | Cn1cc(-c2ccc(-c3ccc(C4=NC(C)(C)C(=O)N4CC4CN(C(=O)C5(O)CC5)C4)c(F)c3)cc2)cn1 [Compound 81, 2-(3-fluoro-4′-(1-methyl-1H-pyrazol-4-yl)-[1,1′-biphenyl]-4-yl)-1-((1-(1-hydroxycyclopropanecarbonyl)azetidin-3-yl)methyl)-4,4-dimethyl-1H-imidazol-5(4H)-one]
15 | ~7.76 µM | 0.00398 µM |  |  |  | 0.00617 µM | Cc1cc(-c2ccc3cc(F)ccc3c2)ccc1C1=NC(C)(C)C(=O)N1C[C@@H]1CCN(C(=O)C2(C)CC2)C1 [Compound 86, (R)-2-(4-(6-fluoronaphthalen-2-yl)-2-methylphenyl)-4,4-dimethyl-1-((1-(1-methylcyclopropanecarbonyl)pyrrolidin-3-yl)methyl)-1H-imidazol-5(4H)-one]
16 | 5.62 µM | 0.468 µM | 2.04 µM |  |  |  | CC1(C)N=C(c2ccc(-c3ccc4cccc(F)c4c3)cc2)N(CC2CN(C(=O)C3CC3)C2)C1=O [Compound 40, 1-((1-(cyclopropanecarbonyl)azetidin-3-yl)methyl)-2-(4-(8-fluoronaphthalen-2-yl)phenyl)-4,4-dimethyl-1H-imidazol-5(4H)-one]
17 | > 10 µM | 0.0257 µM |  |  |  | 0.0427 µM | Cc1cc(-c2ccc3c(c2)ncn3C)ccc1C1=NC(C)(C)C(=O)N1CC1CN(C(=O)C2(C)CC2)C1 [Compound 83, 4,4-dimethyl-2-(2-methyl-4-(1-methyl-1H-benzo[d]imidazol-5-yl)phenyl)-1-((1-(1-methylcyclopropanecarbonyl)azetidin-3-yl)methyl)-1H-imidazol-5(4H)-one]
18 |  |  | 0.776 µM |  |  | 1.2 µM | CC1(C)N=C(c2ccc(-c3c[nH]c4ccccc34)cc2F)N(CC2CN(C(=O)C3CC3)C2)C1=O [Compound 62, 1-((1-(cyclopropanecarbonyl)azetidin-3-yl)methyl)-2-(2-fluoro-4-(1H-indol-3-yl)phenyl)-4,4-dimethyl-1H-imidazol-5(4H)-one]
19 | 4.37 µM | 0.0145 µM |  |  |  | 0.0646 µM | Cc1cc(-c2ccc3cc(F)ccc3c2)ccc1C1=NC(C)(C)C(=O)N1CC1CN(C(=O)C2(C)CC2)C1 [Compound 82]

Source: patent US10413545B2, “Imidazolin-5-one derivative useful as FASN inhibitors for the treatment of cancer” (Janssen Pharmaceutica NV, priority 2013, dated 2019)
